Assay results taken from BindingDB's records for doi:10.7270/Q2M32T6M (Vanderbilt Screening Center for GPCRs, Ion Channels and …, 2009).

Biological target: T1, Solute carrier family 12 member 5 (Homo sapiens, UniProt Q9H2X9)
T1 sequence (Q9H2X9 whole entry): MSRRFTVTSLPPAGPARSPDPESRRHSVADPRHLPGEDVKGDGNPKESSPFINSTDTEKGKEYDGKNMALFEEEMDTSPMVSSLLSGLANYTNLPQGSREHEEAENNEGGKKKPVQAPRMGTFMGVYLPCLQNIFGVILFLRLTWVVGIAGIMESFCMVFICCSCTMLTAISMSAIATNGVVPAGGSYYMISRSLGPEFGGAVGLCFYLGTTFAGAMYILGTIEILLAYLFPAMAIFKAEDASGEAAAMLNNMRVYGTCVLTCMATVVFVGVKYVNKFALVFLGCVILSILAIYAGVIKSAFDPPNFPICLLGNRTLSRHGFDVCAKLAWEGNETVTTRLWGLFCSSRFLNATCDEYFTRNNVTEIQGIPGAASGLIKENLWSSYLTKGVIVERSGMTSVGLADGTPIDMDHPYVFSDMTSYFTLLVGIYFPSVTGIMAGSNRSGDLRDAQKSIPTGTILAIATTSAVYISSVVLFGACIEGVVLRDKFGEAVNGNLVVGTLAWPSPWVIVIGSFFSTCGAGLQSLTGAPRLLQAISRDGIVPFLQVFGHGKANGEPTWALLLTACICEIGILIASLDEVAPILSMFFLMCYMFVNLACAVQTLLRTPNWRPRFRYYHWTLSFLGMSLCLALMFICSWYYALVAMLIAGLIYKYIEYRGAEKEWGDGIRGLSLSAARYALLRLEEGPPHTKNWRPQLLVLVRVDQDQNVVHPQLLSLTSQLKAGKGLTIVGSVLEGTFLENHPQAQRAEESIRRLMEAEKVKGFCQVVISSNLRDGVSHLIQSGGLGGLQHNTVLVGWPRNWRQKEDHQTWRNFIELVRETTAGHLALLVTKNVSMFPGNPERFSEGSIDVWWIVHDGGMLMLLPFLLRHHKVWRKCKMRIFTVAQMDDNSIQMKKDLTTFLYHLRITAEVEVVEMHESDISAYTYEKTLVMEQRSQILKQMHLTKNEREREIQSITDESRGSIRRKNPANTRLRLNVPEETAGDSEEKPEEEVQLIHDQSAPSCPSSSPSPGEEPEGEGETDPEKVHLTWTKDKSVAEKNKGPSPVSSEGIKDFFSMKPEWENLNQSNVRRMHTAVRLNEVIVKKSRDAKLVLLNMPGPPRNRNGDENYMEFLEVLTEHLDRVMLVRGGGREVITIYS
Assay: concentration-response of KCC2 transport modulators – cell-based, HEK293 KCC2, FluoZin-2 fluorescence, dose response (AID 1736)

[1] = inactive by the depositor's call

EC50	EC50 [1]	SMILES
22.7 µM		S=C(NCCc1ccccc1)NN=Cc1cccc(Cl)c1Cl [1-[(2,3-dichlorobenzylidene)amino]-3-phenethyl-thiourea]
9.24 µM		Fc1cccc(F)c1C=NNC(=S)Nc1cccnc1 [1-[(2,6-difluorobenzylidene)amino]-3-(3-pyridyl)thiourea]
7.98 µM		NC(=S)NN=C1C(=O)N(Cc2ccc(F)cc2)c2ccccc21 [1-[(Z)-[1-[(4-fluorophenyl)methyl]-2-oxidanylidene-indol-3-ylidene]amino]thiourea]
7.58 µM		Cc1ccc(-c2noc(CN3CCN(Cc4ccccc4)CC3)n2)cc1 [1-benzyl-4-{[3-(4-methylphenyl)-1,2,4-oxadiazol-5-yl]methyl}piperazine]
1.06 µM		O=C(CSc1ccc(-c2ccccc2)nn1)c1ccccc1 [1-phenyl-2-(6-phenylpyridazin-3-yl)sulfanyl-ethanone]
42.6 µM		CC1CCN(C(=O)c2ccc(SCc3ccccc3F)c([N+](=O)[O-])c2)CC1 [1-{4-[(2-fluorobenzyl)thio]-3-nitrobenzoyl}-4-methylpiperidine]
2.55 µM		O=C(c1ccc(S(=O)(=O)c2cccc(Cl)c2)c([N+](=O)[O-])c1)N1CCN(c2ccccn2)CC1 [1-{4-[(3-chlorophenyl)sulfonyl]-3-nitrobenzoyl}-4-pyridin-2-ylpiperazine]
10.8 µM		O=C(NC(=S)Nc1nc(-c2cccc([N+](=O)[O-])c2)cs1)c1cc(Cl)ccc1Cl [2,5-bis(chloranyl)-N-[[4-(3-nitrophenyl)-1,3-thiazol-2-yl]carbamothioyl]benzamide]
7.74 µM		Cc1ccc(C)c(C(=O)NC(C)CCc2ccccc2)c1 (configuration not stated) [2,5-dimethyl-N-(1-methyl-3-phenyl-propyl)benzamide]
3.74 µM		CCn1nnnc1SCC(=O)Nc1nc(-c2cccs2)cs1 [2-(1-Ethyl-1H-tetrazol-5-ylsulfanyl)-N-(4-thiophen-2-yl-thiazol-2-yl)-acetamide]
439 µM		Cn1c(CSc2nc3ccccc3s2)nc2ccccc21 [2-(1-Methyl-1H-benzoimidazol-2-ylmethylsulfanyl)-benzothiazole]
	459 µM	O=C(COc1ccc2ccccc2c1Br)Nn1cnnc1 [2-(1-bromanylnaphthalen-2-yl)oxy-N-(1,2,4-triazol-4-yl)ethanamide]
4.49 µM		C=CCNc1oc(Cc2cccc3ccccc23)nc1C#N [2-(1-naphthalenylmethyl)-5-(prop-2-enylamino)-4-oxazolecarbonitrile]
0.156 µM		O=C(CN1C(=O)NC2(CCCC2)C1=O)Nc1nc(-c2ccc(F)cc2)cs1 [2-(2,4-diketo-1,3-diazaspiro[4.4]nonan-3-yl)-N-[4-(4-fluorophenyl)thiazol-2-yl]acetamide]
12 µM		N#Cc1nc(-c2ccco2)oc1N1CCN(Cc2ccccc2)CC1 [2-(2-furanyl)-5-[4-(phenylmethyl)-1-piperazinyl]-4-oxazolecarbonitrile]
31.1 µM		O=C(COC(=O)c1cc([N+](=O)[O-])ccc1NCCO)c1ccccc1 [2-(2-hydroxyethylamino)-5-nitro-benzoic acid phenacyl ester]
	1890 µM	O=C(CSC1=NCCS1)Nc1nc(-c2ccccc2)cs1 [2-(4,5-dihydro-1,3-thiazol-2-ylsulfanyl)-N-(4-phenyl-1,3-thiazol-2-yl)acetamide]
8.18 µM		Cc1cc(C)c(C#N)c(N2CCN(Cc3ccccc3)CC2)n1 [2-(4-benzyl-1-piperazinyl)-4,6-dimethylnicotinonitrile]
	8.64 µM	Cc1nc(N2CCN(Cc3ccccc3)CC2)nc2c1C(=O)CCC2 [2-(4-benzylpiperazin-1-yl)-4-methyl-7,8-dihydro-6H-quinazolin-5-one]
1.94 µM		O=C(Cn1nc(-c2ccccc2)ccc1=O)NCc1ccc2c(c1)OCO2 [2-(6-keto-3-phenyl-pyridazin-1-yl)-N-piperonyl-acetamide]
2.52 µM		O=C(Cn1cnc2c(nnn2-c2ccccc2)c1=O)NCCc1ccccc1 [2-(7-keto-3-phenyl-triazolo[4,5-d]pyrimidin-6-yl)-N-phenethyl-acetamide]

EC50	EC50 [1]	SMILES
	2.87 µM	Cc1ccc(N(CC(=O)NCCSc2ccccn2)S(=O)(=O)c2ccc(F)cc2)cc1 [2-(N-(4-fluorophenyl)sulfonyl-4-methyl-anilino)-N-[2-(2-pyridylthio)ethyl]acetamide]
0.481 µM		O=C(COC(=O)c1cc([N+](=O)[O-])ccc1NCc1ccccc1)NC1CCCCC1 [2-(benzylamino)-5-nitro-benzoic acid [2-(cyclohexylamino)-2-keto-ethyl] ester]
1490 µM		O=C(O)c1cc([N+](=O)[O-])ccc1NCc1ccccc1 [2-(benzylamino)-5-nitro-benzoic acid]
2.06 µM		O=[N+]([O-])c1ccc(CSc2nnc(SCc3ccccc3)s2)cc1 [2-(benzylthio)-5-[(4-nitrobenzyl)thio]-1,3,4-thiadiazole]
35.2 µM		CCc1ccc(OCCNC(=O)c2ccccc2SCc2ccccc2)cc1 [2-(benzylthio)-N-[2-(4-ethylphenoxy)ethyl]benzamide]
	82.6 µM	COn1c(SC2CCCCC2)nc2ccccc2c1=O [2-(cyclohexylthio)-3-methoxy-4-quinazolinone]
4.98 µM		COc1ccc(S(=O)(=O)N2CCC(C(=O)N3CCc4ccccc4C3)CC2)cc1C [2-({1-[(4-methoxy-3-methylphenyl)sulfonyl]-4-piperidinyl}carbonyl)-1,2,3,4-tetrahydroisoquinoline]
	38.3 µM	CCc1ccc(-c2nc(C[S+]([O-])CC(=O)NCc3cccnc3)c(C)o2)cc1 (configuration not stated) [2-({[2-(4-ethylphenyl)-5-methyl-1,3-oxazol-4-yl]methyl}sulfinyl)-N-(pyridin-3-ylmethyl)acetamide]
6.08 µM		Cn1nccc1C(=O)OCC(=O)Nc1nc(-c2ccccc2)cs1 [2-Methyl-2H-pyrazole-3-carboxylic acid (4-phenyl-thiazol-2-ylcarbamoyl)-methyl ester]
1.42 µM		O=C(CSc1nnnn1-c1ccc(Cl)cc1)N1CCc2ccccc2C1 [2-[1-(4-chlorophenyl)tetrazol-5-yl]sulfanyl-1-(3,4-dihydro-1H-isoquinolin-2-yl)ethanone]
4.2 µM		O=C1Nc2ccc([N+](=O)[O-])cc2OC1CCN1CCN(Cc2ccccc2)CC1 (configuration not stated) [2-[2-(4-benzylpiperazin-1-yl)ethyl]-7-nitro-4H-1,4-benzoxazin-3-one]
1.65 µM		O=C(CSc1ccccc1C(=O)NCc1ccccc1)NC1CCCCCCC1 [2-[2-(cyclooctylamino)-2-oxidanylidene-ethyl]sulfanyl-N-(phenylmethyl)benzamide]
10800 µM		NC(=O)COc1ccccc1/C=C1/SC(=O)N(CC(=O)N2CCc3ccccc3C2)C1=O [2-[2-({3-[2-(3,4-dihydro-2(1H)-isoquinolinyl)-2-oxoethyl]-2,4-dioxo-1,3-thiazolidin-5-ylidene}methyl)phenoxy]acetamide]
3.54 µM		CCc1ccc(Nc2nnc(SCC(=O)Nc3sccc3C(N)=O)s2)cc1 [2-[2-[[5-[(4-ethylphenyl)amino]-1,3,4-thiadiazol-2-yl]sulfanyl]ethanoylamino]thiophene-3-carboxamide]
	8.27 µM	O=C(Cn1nc(-c2ccccc2F)ccc1=O)NCc1ccc2c(c1)OCO2 [2-[3-(2-fluorophenyl)-6-keto-pyridazin-1-yl]-N-piperonyl-acetamide]
1.48 µM		O=C(Cn1cnc2c(nnn2Cc2ccc(F)cc2)c1=O)NCc1ccc2c(c1)OCO2 [2-[3-(4-fluorobenzyl)-7-keto-triazolo[4,5-d]pyrimidin-6-yl]-N-piperonyl-acetamide]
28.1 µM		O=[N+]([O-])c1cc(-n2c(O)c3c(c2O)CCCC3)ccc1NC1CCN(Cc2ccccc2)CC1 [2-[3-nitro-4-[[1-(phenylmethyl)-4-piperidinyl]amino]phenyl]-3a,4,5,6,7,7a-hexahydroisoindole-1,3-dione]
	46.4 µM	CC(C)CC(c1nnnn1Cc1cccs1)N1CCN(c2nc3ccccc3s2)CC1 (configuration not stated) [2-[4-[3-methyl-1-[1-(2-thenyl)tetrazol-5-yl]butyl]piperazino]-1,3-benzothiazole]
9.24 µM		Cc1cccc(OCc2nnc(SCC(=O)c3cccs3)n2C)c1C [2-[5-(2,3-Dimethyl-phenoxymethyl)-4-methyl-4H-[1,2,4]triazol-3-ylsulfanyl]-1-thiophen-2-yl-ethanone]
5.32 µM		O=C(CSc1nnc(-c2ccc(F)cc2)o1)N1CCN(C(=O)c2ccco2)CC1 [2-[5-(4-Fluoro-phenyl)-[1,3,4]oxadiazol-2-ylsulfanyl]-1-[4-(furan-2-carbonyl)-piperazin-1-yl]-ethanone]

SMILES	EC50	EC50 [1]
COc1ccc(-c2nnc(-c3ccc(OCC(C)C)cc3)o2)cc1 [2-(4-Isobutoxy-phenyl)-5-(4-methoxy-phenyl)-[1,3,4]oxadiazole]		0.00127 µM
